The test concerns iNKT cells. As to the kind of experiment: iNKT cells co-cultured with CD1d+ cells, cytokine release. In kind it is cell-based. As for the experimental part:
iNKT cells were treated with an α-S-linked galactosylceramide (alpha-GalCer) to determine immunostimulatory activity. FIGS. 4 and 5 show the amounts of interferon-gamma and IL-4 released (expressed as a fold-increase over the levels produced in responses to the mock-transfected cells alone) in 5 experiments. Cytokine was released when iNKT cells were co-cultured with CD1d+ cells in the absence of added glycolipid (second bar). This was enhanced for both cytokines when alpha-GalCer was added and blocked using an antibody specific for CD1d.

The mark [1] stands for this setting: iNKT cells co-cultured with CD1d+ cells, compared with no added glycolipid, 5 experiments, FIGS. 4 and 5.

Turning to `CCCCCCCCCCCCCCCCCCCCCCCCCC(=O)N[C@@H](CO[C@H]1O[C@H](CO)[C@H](O)[C@H](O)[C@H]1O)[C@H](O)[C@H](O)CCCCCCCCCCCCCC` [alpha-GalCer], for the setting “iNKT cells co-cultured with CD1d+ cells plus anti-CD1d antibody, both cytokines”, the “effect of antibody specific for CD1d on glycolipid-induced cytokine release” value was “blocked”. In addition, under setting [1], the “IL-4 released (fold-increase over the levels produced in response to mock-transfected cells alone)” value is “enhanced” and the “interferon-gamma released (fold-increase over the levels produced in response to mock-transfected cells alone)” value is given as “enhanced”.

These data come from patent US20100184711A1, “Alpha-GLYCOSYL THIOLS AND alpha-S-LINKED GLYCOLIPIDS” (UNIVERSITY COLLEGE DUBLIN, NATIONAL UNIVERSITY OF IRELAND, …, priority 2008, published 2010).
